Test results taken from US9693556B2, “Herbicidal pyridazinone derivatives” (SYNGENTA LIMITED, priority 2011, dated 2017).

How the values were obtained:
Format in all cases: in vivo
[1] = system: Alopecurus myosuroides (ALOMY); test: Pre-emergence herbicidal glasshouse test on Alopecurus myosuroides; conditions: for PRE Application ALOMY herbicidal damage (five point scale): pre-emergence, 1000 g/h, evaluated after 13 days
Experimental: (§1) Seeds of a variety of test species are sown in standard soil in pots (Alopecurus myosuroides (ALOMY), Setaria faberi (SETFA), Echinochloa crus-galli (ECHCG), Solanum nigrum (SOLNI), Amaranthus retoflexus (AMARE), Ipomoea hederacea (IPOHE)). After cultivation for one day (pre-emergence) or after 8 days cultivation (post-emergence) under controlled conditions in a glasshouse (at 24/16° C., day/night; 14 hours light; 65% humidity), the plants are sprayed with an aqueous spray solution derived from the formulation of the technical active ingredient in acetone/water (50:50) solution containing 0.5% Tween 20 (polyoxyethelyene sorbitan monolaurate, CAS RN 9005-64-5). Compounds are applied at 1000 g/h. The test plants are then grown in a glasshouse under controlled conditions in a glasshouse (at 24/16° C., day/night; 14 hours light; 65% humidity) and watered twice daily. After 13 days for pre and post-emergence, the test is evaluated for the percentage herbicidal damage caused to the plant. The biological activities are shown in the following table on a five point scale (5=80-100% damage; 4=60-79% damage; 3=40-59% damage; 2=20-39% damage; 1=0-19% damage).

[2] = system: Amaranthus retoflexus (AMARE); test: Post-emergence herbicidal glasshouse test on Amaranthus retoflexus; conditions: for POST Application AMARE herbicidal damage (five point scale): post-emergence, 1000 g/h, evaluated after 13 days
Experimental: as §1

[3] = system: Echinochloa crus-galli (ECHCG); test: Pre-emergence herbicidal glasshouse test on Echinochloa crus-galli; conditions: pre-emergence; 1000 g/h; evaluated after 13 days
Experimental: as §1

[4] = system: Setaria faberi (SETFA); test: Post-emergence herbicidal glasshouse test on Setaria faberi; conditions: for POST Application SETFA herbicidal damage (five point scale): post-emergence, 1000 g/h, evaluated after 13 days
Experimental: as §1

[5] = system: Echinochloa crus-galli (ECHCG); test: Post-emergence herbicidal glasshouse test on Echinochloa crus-galli; conditions: for POST Application ECHCG herbicidal damage (five point scale): post-emergence, 1000 g/h, evaluated after 13 days
Experimental: as §1

[6] = system: Ipomoea hederacea (IPOHE); test: Post-emergence herbicidal glasshouse test on Ipomoea hederacea; conditions: for POST Application IPOHE herbicidal damage (five point scale): post-emergence, 1000 g/h, evaluated after 13 days
Experimental: as §1

[7] = system: Amaranthus retoflexus (AMARE); test: Pre-emergence herbicidal glasshouse test on Amaranthus retoflexus; conditions: for PRE Application AMARE herbicidal damage (five point scale): pre-emergence, 1000 g/h, evaluated after 13 days
Experimental: as §1

[8] = system: Ipomoea hederacea (IPOHE); test: Pre-emergence herbicidal glasshouse test on Ipomoea hederacea; conditions: pre-emergence; 1000 g/h; evaluated after 13 days
Experimental: as §1

[9] = system: Alopecurus myosuroides (ALOMY); test: Post-emergence herbicidal glasshouse test on Alopecurus myosuroides; conditions: for POST Application ALOMY herbicidal damage (five point scale): post-emergence, 1000 g/h, evaluated after 13 days
Experimental: as §1

[10] = system: Setaria faberi (SETFA); test: Pre-emergence herbicidal glasshouse test on Setaria faberi; conditions: for PRE Application SETFA herbicidal damage (five point scale): pre-emergence, 1000 g/h, evaluated after 13 days
Experimental: as §1

[11] = system: Solanum nigrum (SOLNI); test: Pre-emergence herbicidal glasshouse test on Solanum nigrum; conditions: for PRE Application SOLNI herbicidal damage (five point scale): pre-emergence, 1000 g/h, evaluated after 13 days
Experimental: as §1

[12] = system: Solanum nigrum (SOLNI); test: Post-emergence herbicidal glasshouse test on Solanum nigrum; conditions: for POST Application SOLNI herbicidal damage (five point scale): post-emergence, 1000 g/h, evaluated after 13 days
Experimental: as §1

| SMILES | PRE Application ALOMY herbicidal damage (five point scale) [1] | POST Application AMARE herbicidal damage (five point scale) [2] | PRE Application ECHCG herbicidal damage (five point scale) [3] | POST Application SETFA herbicidal damage (five point scale) [4] | POST Application ECHCG herbicidal damage (five point scale) [5] | POST Application IPOHE herbicidal damage (five point scale) [6] | PRE Application AMARE herbicidal damage (five point scale) [7] | PRE Application IPOHE herbicidal damage (five point scale) [8] | POST Application ALOMY herbicidal damage (five point scale) [9] | PRE Application SETFA herbicidal damage (five point scale) [10] | PRE Application SOLNI herbicidal damage (five point scale) [11] | POST Application SOLNI herbicidal damage (five point scale) [12] | further results |
| --- | --- | --- | --- | --- | --- | --- | --- | --- | --- | --- | --- | --- | --- |
| COCn1ncc(-c2ccc(S(C)(=O)=O)c(C3=NOCC3)c2C)c(O)c1=O [Compound 1.001] | 5 (5=80-100% damage) | 5 (5=80-100% damage) | 5 (5=80-100% damage) | 5 (5=80-100% damage) | 5 (5=80-100% damage) | 5 (5=80-100% damage) | 5 (5=80-100% damage) | 5 (5=80-100% damage) | 5 (5=80-100% damage) | 5 (5=80-100% damage) | 5 (5=80-100% damage) | 5 (5=80-100% damage) | – |
| CCn1ncc(-c2ccc(S(C)(=O)=O)c(C3=NOCC3)c2Cl)c(O)c1=O [Compound 1.009] | 5 (5=80-100% damage) | 5 (5=80-100% damage) | 5 (5=80-100% damage) | 5 (5=80-100% damage) | 5 (5=80-100% damage) | 5 (5=80-100% damage) | 5 (5=80-100% damage) | – | 5 (5=80-100% damage) | 5 (5=80-100% damage) | 5 (5=80-100% damage) | 5 (5=80-100% damage) | – |
| CC(C)n1ncc(-c2c(Cl)ccc(Cl)c2Cl)c(O)c1=O [Compound 1.015] | 1 (1=0-19% damage) | 2 (2=20-39% damage) | 1 (1=0-19% damage) | 1 (1=0-19% damage) | 2 (2=20-39% damage) | 4 (4=60-79% damage) | – | 1 (1=0-19% damage) | 1 (1=0-19% damage) | 1 (1=0-19% damage) | – | 4 (4=60-79% damage) | – |
| Cc1cccn(-c2cnn(C)c(=O)c2O)c1=O [Compound 1.062] | 1 (1=0-19% damage) | 5 (5=80-100% damage) | 1 (1=0-19% damage) | 4 (4=60-79% damage) | 5 (5=80-100% damage) | 5 (5=80-100% damage) | – | 1 (1=0-19% damage) | 2 (2=20-39% damage) | 1 (1=0-19% damage) | 1 (1=0-19% damage) | 4 (4=60-79% damage) | – |
| Cc1ccn(-c2cnn(C)c(=O)c2O)c(=O)c1 [Compound 1.065] | 1 (1=0-19% damage) | 5 (5=80-100% damage) | 3 (3=40-59% damage) | 5 (5=80-100% damage) | 5 (5=80-100% damage) | 4 (4=60-79% damage) | 5 (5=80-100% damage) | – | 1 (1=0-19% damage) | 2 (2=20-39% damage) | 1 (1=0-19% damage) | 4 (4=60-79% damage) | – |
| Cn1ncc(-c2ccccc2[N+](=O)[O-])c(O)c1=O [Compound 1.111] | 1 (1=0-19% damage) | 2 (2=20-39% damage) | 1 (1=0-19% damage) | 1 (1=0-19% damage) | 1 (1=0-19% damage) | 1 (1=0-19% damage) | – | 2 (2=20-39% damage) | 1 (1=0-19% damage) | 1 (1=0-19% damage) | – | 3 (3=40-59% damage) | – |
| COc1ccc(-c2cnn(C)c(=O)c2O)c(C(F)(F)F)c1 [Compound 1.115] | 1 (1=0-19% damage) | 2 (2=20-39% damage) | 2 (2=20-39% damage) | 1 (1=0-19% damage) | 1 (1=0-19% damage) | 4 (4=60-79% damage) | 4 (4=60-79% damage) | – | 1 (1=0-19% damage) | 1 (1=0-19% damage) | 4 (4=60-79% damage) | 5 (5=80-100% damage) | – |
| CCCn1ncc(-c2ccc(C(F)(F)F)cc2Cl)c(O)c1=O [Compound 1.126] | 1 (1=0-19% damage) | 5 (5=80-100% damage) | 1 (1=0-19% damage) | 2 (2=20-39% damage) | 2 (2=20-39% damage) | 3 (3=40-59% damage) | – | 1 (1=0-19% damage) | 1 (1=0-19% damage) | 1 (1=0-19% damage) | 1 (1=0-19% damage) | 4 (4=60-79% damage) | – |
| C=Cc1ccc(-c2cnn(C)c(=O)c2O)c(S(C)(=O)=O)c1 [Compound 1.139] | 5 (5=80-100% damage) | 5 (5=80-100% damage) | 5 (5=80-100% damage) | 5 (5=80-100% damage) | 5 (5=80-100% damage) | 5 (5=80-100% damage) | 5 (5=80-100% damage) | 4 (4=60-79% damage) | 5 (5=80-100% damage) | 1 (1=0-19% damage) | – | 5 (5=80-100% damage) | – |
| CCCCn1c(C2CC2)ncc(-c2cnn(C)c(=O)c2O)c1=O [Compound 10.005] | – | – | – | – | – | – | – | – | – | – | – | – | PRE Application ALOMY ([1]; pre-emergence application, Alopecurus myosuroides, damage score 1-5): 1 (1=0-19% damage); POST Application AMARE ([2]; post-emergence application, Amaranthus retoflexus, damage score 1-5): 5 (5=80-100% damage); POST Application SETFA ([4]; post-emergence application, Setaria faberi, damage score 1-5): 5 (5=80-100% damage); POST Application ECHCG ([5]; post-emergence application, Echinochloa crus-galli, damage score 1-5): 5 (5=80-100% damage); POST Application IPOHE ([6]; post-emergence application, Ipomoea hederacea, damage score 1-5): 4 (4=60-79% damage); PRE Application AMARE ([7]; pre-emergence application, Amaranthus retoflexus, damage score 1-5): 5 (5=80-100% damage); POST Application ALOMY ([9]; post-emergence application, Alopecurus myosuroides, damage score 1-5): 2 (2=20-39% damage); PRE Application SETFA ([10]; pre-emergence application, Setaria faberi, damage score 1-5): 1 (1=0-19% damage); PRE Application SOLNI ([11]; pre-emergence application, Solanum nigrum, damage score 1-5): 5 (5=80-100% damage); POST Application SOLNI ([12]; post-emergence application, Solanum nigrum, damage score 1-5): 5 (5=80-100% damage) |
